In general, melting point refers to the temperature of the solid-liquid transition.

For 22 compounds, melting point and inhibition results are on record in patent publication US20070249620A1, “Urea Derivative” (priority 2004, published 2007).

For one series, the target named is T1, mouse DGAT1 (Mus musculus, UniProt Q9Z2A7).
T1 construct: made in house; host or cells: insect cells (High Five, Sf9, Sf21, etc.), baculovirus expression system (Invitrogen)
T1 sequence (Q9Z2A7 1-498): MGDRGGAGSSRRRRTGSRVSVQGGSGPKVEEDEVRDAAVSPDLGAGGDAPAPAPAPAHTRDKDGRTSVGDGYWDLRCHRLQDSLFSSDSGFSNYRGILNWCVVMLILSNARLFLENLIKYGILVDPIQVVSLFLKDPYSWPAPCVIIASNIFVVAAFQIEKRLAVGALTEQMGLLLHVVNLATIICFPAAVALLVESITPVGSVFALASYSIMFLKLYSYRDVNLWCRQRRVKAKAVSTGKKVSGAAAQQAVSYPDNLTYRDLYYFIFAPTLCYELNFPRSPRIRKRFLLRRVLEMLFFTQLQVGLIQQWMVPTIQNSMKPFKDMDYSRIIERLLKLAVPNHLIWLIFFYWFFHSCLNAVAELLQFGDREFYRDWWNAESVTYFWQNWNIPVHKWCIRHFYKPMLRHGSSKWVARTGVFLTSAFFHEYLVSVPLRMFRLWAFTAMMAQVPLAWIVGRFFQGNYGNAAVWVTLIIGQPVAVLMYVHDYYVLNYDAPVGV
In words: DGAT1 inhibitory effect test (microsome fraction, [14C]-oleoyl-CoA, triglyceride radioactivity by TLC). The class given is biochemical. The note with it: 0.5 h; concentration of the test compound 0.1 μg/ml; mouse DGAT1 microsomes, 23° C., 30 minutes; read-out: Inhibitory ratio. Summed up: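 Inhibition was scored from radiolabelled triglyceride separated by TLC, relative to vehicle and net of a 0-min background. The reaction ran for 30 min at room temperature (23 °C) in Tris-HCl pH 8.0 with MgCl2, BSA and Triton X-100. Substrates were 30 μM [14C]-oleoyl-CoA and 0.5 mM dioleoylglycerol, with mouse DGAT1 microsomes from baculovirus-infected insect cells as enzyme.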

SMILES strings stand for the structures.

On to `COc1ccc(C)cc1NC(=O)Nc1ccc(N2CCN(C(=O)Nc3c(C)cccc3C)C(C)C2)cc1` (centres unmarked) [Example 199, 4-{4-[3-(2-methoxy-5-methyl-phenyl)-ureido]-phenyl}-2-methyl-piperazine-1-carboxylic acid (2,6-dimethyl-phenyl)-amide], for which the melting point was 204 to 206 °C. The inhibition at 0.1 µg/mL on mouse DGAT1 was not below 50%.

Regarding `COc1ccc(C)cc1NC(=O)Nc1ccc(N2CCCN(C(=O)Nc3c(C)cccc3Cl)CC2)cc1` [Example 200, 4-{4-[3-(2-methoxy-5-methyl-phenyl)-ureido]-phenyl}-perhydro-1,4-diazepine-1-carboxylic acid (2-chloro-6-methyl-phenyl)-amide], the melting point was > 240 °C (dec.). Further, the inhibition at 0.1 µg/mL at mouse DGAT1 was not below 50%.

`COc1ccc(C)cc1NC(=O)Nc1ccc(N2CCCN(C(=O)Nc3c(C)cccc3C)CC2)cc1` [Example 201, 4-{4-[3-(2-methoxy-5-methyl-phenyl)-ureido]-phenyl}-perhydro-1,4-diazepine-1-carboxylic acid (2,6-dimethyl-phenyl)-amide]: the melting point is > 240 °C (dec.). In addition, the inhibition at 0.1 µg/mL on mouse DGAT1 was not below 50%.

In turn, `CCCCCCNC(=O)Nc1ccc(N2CCN(C(=O)Nc3c(C)cccc3Cl)CC2)cc1` [Example 206, 4-[4-(3-hexyl-ureido)-phenyl]-piperazine-1-carboxylic acid (2-chloro-6-methyl-phenyl)-amide] showed a melting point of 206 to 210 °C. In addition, the inhibition at 0.1 µg/mL at mouse DGAT1 is not below 50%.

In the case of `Cc1cccc(Cl)c1NC(=O)N1CCN(c2ccc(NC(=O)NC3CCCCC3)cc2)CC1` [Example 207, 4-[4-(3-cyclohexyl-ureido)-phenyl]-piperazine-1-carboxylic acid (2-chloro-6-methyl-phenyl)-amide], the melting point is > 260 °C (dec.). For the same compound, the inhibition at 0.1 µg/mL at mouse DGAT1 is not below 50%.

In turn, `COc1ccc(C)cc1NC(=O)Nc1ccc(N2CCN(C(=O)Nc3ccc(OCCO)cc3C)CC2)cc1` [Example 208, 4-{4-[3-(2-methoxy-5-methyl-phenyl)-ureido]-phenyl}-piperazine-1-carboxylic acid [4-(2-hydroxy-ethoxy)-2-methyl-phenyl]-amide] displayed a melting point of 174 to 176 °C. Further, at mouse DGAT1, the inhibition at 0.1 µg/mL was not below 50%.

Turning to `COc1ccc(C)cc1NC(=O)Nc1ccc(N2CCN(C(=O)Nc3ccc(OCCO)cc3C(F)(F)F)CC2)cc1` [Example 209, 4-{4-[3-(2-methoxy-5-methyl-phenyl)-ureido]-phenyl}-piperazine-1-carboxylic acid [4-(2-hydroxy-ethoxy)-2-trifluoromethyl-phenyl]-amide], the melting point lay within 175 to 177 °C. On mouse DGAT1, the inhibition at 0.1 µg/mL is not below 50%.

With `COc1ccc(C)cc1NC(=O)Nc1ccc(N2CCN(C(=O)Nc3ccc(OCCO)cc3F)CC2)cc1` [Example 210, 4-{4-[3-(2-methoxy-5-methyl-phenyl)-ureido]-phenyl}-piperazine-1-carboxylic acid [2-fluoro-4-(2-hydroxy-ethoxy)-phenyl]-amide], the melting point is 214 to 215 °C. For the same compound, on mouse DGAT1, the inhibition at 0.1 µg/mL is not below 50%.

Consider `O=C(Nc1ccc(N2CCN(C(=O)Nc3ccc(OCCO)cc3C(F)(F)F)CC2)cc1)Nc1ccccc1F` [Example 211, 4-{4-[3-(2-fluoro-phenyl)-ureido]-phenyl}-piperazine-1-carboxylic acid [4-(2-hydroxy-ethoxy)-2-trifluoromethyl-phenyl]-amide], for which the melting point was in the range of 219 to 220 °C. Besides, the inhibition at 0.1 µg/mL at mouse DGAT1 was not below 50%.

As for `COc1ccc(F)cc1NC(=O)Nc1ccc(N2CCN(C(=O)Nc3ccc(OCCO)cc3C(F)(F)F)CC2)cc1` [Example 212, 4-{4-[3-(5-fluoro-2-methoxy-phenyl)-ureido]-phenyl}-piperazine-1-carboxylic acid [4-(2-hydroxy-ethoxy)-2-trifluoromethyl-phenyl]-amide], the melting point lay within 140 to 141 °C. Also, the inhibition at 0.1 µg/mL on mouse DGAT1 is not below 50%.

With `Cc1cnc(NC(=O)Nc2ccc(N3CCN(C(=O)Nc4ccc(OCCO)cc4C(F)(F)F)CC3)cc2)s1` [Example 213, 4-{4-[3-(5-methyl-thiazol-2-yl)-ureido]-phenyl}-piperazine-1-carboxylic acid [4-(2-hydroxy-ethoxy)-2-trifluoromethyl-phenyl]-amide], the melting point is 118 to 120 °C. Moreover, the inhibition at 0.1 µg/mL on mouse DGAT1 was not below 50%.

`COc1cccc(NC(=O)Nc2ccc(N3CCN(C(=O)Nc4ccc(OCCO)cc4C(F)(F)F)CC3)cc2)c1` [Example 214, 4-{4-[3-(3-methoxy-phenyl)-ureido]-phenyl}-piperazine-1-carboxylic acid [4-(2-hydroxy-ethoxy)-2-trifluoromethyl-phenyl]-amide]: the melting point is 214 to 215 °C. Besides, at mouse DGAT1, the inhibition at 0.1 µg/mL is not below 50%.

For the compound `CCOc1cccc(NC(=O)Nc2ccc(N3CCN(C(=O)Nc4ccc(OCCO)cc4C(F)(F)F)CC3)cc2)c1` [Example 215, 4-{4-[3-(3-ethoxy-phenyl)-ureido]-phenyl}-piperazine-1-carboxylic acid [4-(2-hydroxy-ethoxy)-2-trifluoromethyl-phenyl]-amide], the melting point is 108 to 110 °C. Moreover, the inhibition at 0.1 µg/mL at mouse DGAT1 is not below 50%.

For `COc1cc(NC(=O)Nc2ccc(N3CCN(C(=O)Nc4ccc(OCCO)cc4C(F)(F)F)CC3)cc2)cc(OC)c1` [Example 216, 4-{4-[3-(3,5-dimethoxy-phenyl)-ureido]-phenyl}-piperazine-1-carboxylic acid [4-(2-hydroxy-ethoxy)-2-trifluoromethyl-phenyl]-amide], the melting point lay within 209 to 210 °C. At mouse DGAT1, the inhibition at 0.1 µg/mL was not below 50%.

Compound `COc1ccccc1NC(=O)Nc1ccc(N2CCN(C(=O)Nc3ccc(OCCO)cc3C(F)(F)F)CC2)cc1` [Example 217, 4-{4-[3-(2-methoxy-phenyl)-ureido]-phenyl}-piperazine-1-carboxylic acid [4-(2-hydroxy-ethoxy)-2-trifluoromethyl-phenyl]-amide] came in with a melting point of 118 to 120 °C. Further, the inhibition at 0.1 µg/mL on mouse DGAT1 is not below 50%.

The compound `COc1ccc(C)cc1NC(=O)Nc1ccc(N2CCCN(C(=O)Nc3ccc(OCCO)cc3C(F)(F)F)CC2)cc1` [Example 218, 4-{4-[3-(2-methoxy-5-methyl-phenyl)-ureido]-phenyl}-perhydro-1,4-diazepine-1-carboxylic acid [4-(2-hydroxy-ethoxy)-2-trifluoromethyl-phenyl]-amide] came in with a melting point of 118 to 120 °C. Further, the inhibition at 0.1 µg/mL on mouse DGAT1 is not below 50%.

Turning to `COc1ccc(C)cc1NC(=O)Nc1ccc(N2CCN(C(=O)Nc3ccc(OCCO)cc3C)CC2)nc1` [Example 219, 4-{5-[3-(2-methoxy-5-methyl-phenyl)-ureido]-pyridin-2-yl}-piperazine-1-carboxylic acid [4-(2-hydroxy-ethoxy)-2-methyl-phenyl]-amide], the melting point fell in the range of 189 to 190 °C. For the same compound, the inhibition at 0.1 µg/mL at mouse DGAT1 was not below 50%.

In turn, `COc1ccc(C)cc1NC(=O)Nc1ccc(N2CCN(C(=O)Nc3ccc(OCCO)cc3C(F)(F)F)CC2)nc1` [Example 220, 4-{5-[3-(2-methoxy-5-methyl-phenyl)-ureido]-pyridin-2-yl}-piperazine-1-carboxylic acid [4-(2-hydroxy-ethoxy)-2-trifluoromethyl-phenyl]-amide] yielded a melting point of 198 to 200 °C. The inhibition at 0.1 µg/mL at mouse DGAT1 is not below 50%.

`O=C(Nc1ccc(N2CCN(C(=O)Nc3ccc(OCCO)cc3C(F)(F)F)CC2)c(Cl)c1)Nc1ccccc1F` [Example 221, 4-{2-chloro-4-[3-(2-fluoro-phenyl)-ureido]-phenyl}-piperazine-1-carboxylic acid [4-(2-hydroxy-ethoxy)-2-trifluoromethyl-phenyl]-amide] showed a melting point of 199 to 200 °C. For the same compound, at mouse DGAT1, the inhibition at 0.1 µg/mL was not below 50%.

Turning to `O=C(Nc1ccc(N2CCN(C(=O)Nc3ccc(OCCO)cc3C(F)(F)F)CC2)nc1)Nc1ccccc1F` [Example 222, 4-{5-[3-(2-fluoro-phenyl)-ureido]-pyridin-2-yl}-piperazine-1-carboxylic acid [4-(2-hydroxy-ethoxy)-2-trifluoromethyl-phenyl]-amide], the melting point is 193 to 194 °C. In addition, the inhibition at 0.1 µg/mL at mouse DGAT1 was not below 50%.

In turn, `COc1ccc(F)cc1NC(=O)Nc1ccc(N2CCN(C(=O)Nc3ccc(OCCO)cc3C(F)(F)F)CC2)nc1` [Example 223, 4-{5-[3-(5-fluoro-2-methoxy-phenyl)-ureido]-pyridin-2-yl}-piperazine-1-carboxylic acid [4-(2-hydroxy-ethoxy)-2-trifluoromethyl-phenyl]-amide] showed a melting point of 172 to 173 °C. In addition, the inhibition at 0.1 µg/mL at mouse DGAT1 is not below 50%.

The compound `CC(C)(C)c1csc(NC(=O)Nc2ccc(N3CCN(C(=O)Nc4ccc(OCCO)cc4C(F)(F)F)CC3)cc2)n1` [Example 224, 4-{4-[3-(4-tert-butyl-thiazol-2-yl)-ureido]-phenyl}-piperazine-1-carboxylic acid [4-(2-hydroxy-ethoxy)-2-trifluoromethyl-phenyl]-amide] returned a melting point of 130 to 132 °C. Also, at mouse DGAT1, the inhibition at 0.1 µg/mL was not below 50%.
